Like-named read-outs stand apart in the source and are kept apart here.
Assays:
SKM-1 = assay: MTS viability assay, 72 h; details: SKM-1, 72 h; for CC50: read-out: LC50
Procedure: (§4) On the same day, 50 μL of medium containing tested inhibitor was added to the wells. Each compound was tested at 8 concentrations, in triplicates. As a negative control, the medium containing 0.1% DMSO was used. […] Staurosporine was used at 10 μM as a positive control. One the day of drug addition, basal signal from untreated cells was measured from in triplicate to determine time zero (T0). […] GI50 and LC50 values were extrapolated from a variable (four-parameter) dose-response curve fitted in GraphPad Prism.

MOLM-16 = assay: MTS viability assay, 72 h
Procedure: as §4

OCI-AML-2 = assay: MTS viability assay, 72 h
Procedure: as §4

KASUMI-6 = assay: MTS viability assay, 72 h
Procedure: (§5) 15-25 ×10^3 of MV-4-11, MOLM-13, MOLM-14, MOLM-16, KG-1, Eol-1, SKM-1, PL-21, GDM-1, SKNO-1, RS4;11, Kasumi-3 and Kasumi-6 cells were seeded in 150 μL of culture medium onto individual wells in a 96 well plates, in triplicates. On the same day, 50 μL of medium containing tested inhibitor was added to the wells. Each compound was tested at 8 concentrations, in triplicates. As a negative control, the medium containing 0.1% DMSO was used. […] Staurosporine was used at 10 μM as a positive control. One the day of drug addition, basal signal from untreated cells was measured from in triplicate to determine time zero (T0). […] GI50 and LC50 values were extrapolated from a variable (four-parameter) dose-response curve fitted in GraphPad Prism.

MOLM-14 = assay: MTS viability assay, 72 h; details: Homo sapiens, MOLM-14, 72 h
Procedure: as §5

SKNO-1 = assay: MTS viability assay, 72 h; details: SKNO-1, 72 h
Procedure: as §5

RS4;11 = assay: MTS viability assay, 72 h; details: for CC50: read-out: LC50
Procedure: as §5

GDM-1 = assay: MTS viability assay, 72 h; details: GDM-1, 72 h
Procedure: as §5

PL-21 = assay: MTS viability assay, 72 h; details: PL-21, 72 h
Procedure: as §5

SIG-M5 = assay: MTS viability assay, 72 h; details: SIG-M5, 72 h; for CC50: read-out: LC50
Procedure: as §4

MOLM-13 = assay: MTS viability assay, 72 h; details: MOLM-13, 72 h; for CC50: read-out: LC50
Procedure: as §5

MOLM-6 = assay: MTS viability assay, 72 h; details: for CC50: read-out: LC50
Procedure: as §5

KASUMI-3 = assay: MTS viability assay, 72 h; details: for CC50: read-out: LC50
Procedure: as §5

KG-1 = assay: MTS viability assay, 72 h; details: KG-1, 72 h; for CC50: read-out: LC50
Procedure: as §5

OCI-AML-3 = assay: MTS viability assay, 72 h; details: OCI-AML-3, 72 h
Procedure: as §5

MV-4-11 [1] = assay: MTS viability assay, 72 h
Procedure: as §4

EOL-1 = assay: MTS viability assay, 72 h
Procedure: as §5

KG-1 (FLT3-WT) tumor = assay: KG-1 subcutaneous xenograft; type: in vivo; details: KG-1, SCID mice; doses not given
From the text: (§1) All animals were handled in strict accordance with good animal practice as defined by the relevant national and local animal welfare bodies. SCID and SCID/beige C.B-17 mice were provided by Harlan Laboratories or Charles River Laboratories, and were maintained in pathogen free conditions. For the xenograft experiments, age-matched (9-11 weeks old) females were used. 5×10^6 of MV-4-11 or MOLM-16 cells were suspended in a mixture (1:1, v:v) of PBS with Matrigel (BD Biosciences,) and injected subcutaneously (sc), in a total volume of 100 μL, above the groin on the right hind limb. For MOLM-13 and KG-1 cells, a mixture (3:1, v:v) of PBS and Matrigel HC (BD Bioscience,) was used to inject 5 × 10^6 of cell per mouse subcutaneously (sc), in a total volume of 100 μL. When tumors reached 100-130 mm^3, mice were randomized into uniform groups (6-9 mice per group) and subsequently administered the compound. […] At the end of the experiment, mice were anesthetized with isofluran and blood samples for total cell counts and biochemistry were obtained by retro-orbital bleeding. […] 5×10^6 cells suspended in a mixture (3:1, v:v) of PBS and Matrigel were injected as described above. […] Tumor volume was monitored every second day and calculated using the formula: TV = (a^2×b)/2, where “a” is the short axis in millimeters, and “b” is the long axis in millimeters. Body weight was assessed every day.

MOLM-16 (FLT3-WT) cells = assay: Western blot of FLT3/PIM downstream signaling; type: cell-based; details: MOLM-16, 4 hours
Procedure: (§2) Thereafter, we assessed the activities of FLT3-ITD – induced key pro-survival signaling pathways; STAT5, RAF/MEK/ERK and PI3K/AKT (Figure 3). […] Since the expression of a major anti-apoptotic BCL2 family member, MCL1, is regulated by translation, and PIM kinases regulate protein synthesis through 4EBP1, we also assessed the abundance of MCL1.
(§3) Cells were collected, washed twice with cold PBS, and lysed in RIPA buffer and kept on ice for 10 min. Tumor specimens from xenograft studies were homogenized in RIPA buffer using OMNI TH Tissue Homogenizer and kept on ice for 30 min. After incubation, cell and tumor lysates were centrifuged at 13,000×g at 4°C for 10 min and the supernatants were stored at −80°C until use. Protein concentration was measured using the Bradford method. For SDS-PAGE, 50 μg of protein in the Laemmli sample buffer was loaded onto 10% polyacrylamide gels and electrophoresed. Thereafter, proteins were transferred onto polyvinylidene fluoride (PVDF) membranes (Millipore). After blocking with 5% non-fat dry milk/TBS-T or 2% BSA/TBS-T, membranes were incubated with specific primary antibodies (listed in Supplementary Table 2) at 4 °C overnight. After extensive washing in PBS-T, membranes were incubated for 60 min with appropriate secondary peroxidase-conjugated IgG. The immunoreactive proteins were detected using an enhanced chemiluminescence (ECL) substrate (GE Healthcare) and visualized with Hyperfilm-ECL (GE Healthcare Biosciences).

[2] = system: MV-4-11 (FLT3-ITD+) cells; assay: Western blot of FLT3/PIM downstream signaling; type: cell-based; details: MV-4-11, 4 hours
Procedure: as §2, §3

MV-4-11 [3] = assay: Drug interactions (combination index), MTS; type: cell-based; details: MV-4-11
Procedure: and AC220 in AML cell lines was assessed using an MTS assay. Cells viability was measured after 72 h incubation with three-fold serial dilutions of compounds, starting at 10 µM concentration. Obtained data were presented as percentage of viable cells compared with control (untreated) cells viability. Error bars indicate SD.
11 cells. Combination index (CI) are shown on the Y axis and compound concentrations are shown on X and Z axes. Values […] and below 0.7- a synergy between tested compounds. Values above 1 indicate an antagonistic effect.
(1 picture or pasted object on this page, not shown here)

MOLM-13 xenografts = assay: MOLM-13 subcutaneous xenograft; type: in vivo; details: MOLM-13, SCID mice; AC220 10 mg/kg QD, other doses not given
From the text: as §1

[4] = system: MOLM-14 cells transduced with FLT3 TKD point mutations (D835Y, D835V and F691L); assay: MTS viability of MOLM-14 cells with FLT3 alleles; type: cell-based; details: 72 h

SMILES: CC(C)(C)c1cc(NC(=O)Nc2ccc(-c3cn4c(n3)sc3cc(OCCN5CCOCC5)ccc34)cc2)no1 [AC220]
- GI50 (SKM-1; Homo sapiens): 1130 nM
- CC50 (SKM-1; Homo sapiens): 7790 nM
- GI50 (MOLM-16; MOLM16, 72 h): 688 nM
- CC50 (MOLM-16; MOLM16, 72 h, read-out: LC50): 8230 nM
- GI50 (OCI-AML-2; Homo sapiens, OCI-AML2, 72 h): 499 nM
- CC50 (OCI-AML-2; Homo sapiens, OCI-AML2, 72 h, read-out: LC50): 1240 nM
- GI50 (KASUMI-6; 72 h): < 5 nM
- GI50 (MOLM-14): < 5 nM
- CC50 (MOLM-14; read-out: LC50): 196 nM
- GI50 (SKNO-1): 6 nM
- GI50 (RS4;11; Homo sapiens, RS4-11, 72 h): 132 nM
- CC50 (RS4;11; Homo sapiens, RS4-11, 72 h): 6960 nM
- GI50 (GDM-1; Homo sapiens): 33 nM
- GI50 (PL-21): 412 nM
- GI50 (SIG-M5; Homo sapiens): 558 nM
- CC50 (SIG-M5; Homo sapiens): 3090 nM
- GI50 (MOLM-13; Homo sapiens): < 5 nM
- CC50 (MOLM-13; Homo sapiens): 42 nM
- GI50 (MOLM-6; 72 h): 681 nM
- CC50 (MOLM-6; 72 h): > 10000 nM
- GI50 (KASUMI-3; Kasumi-3, 72 h): < 5 nM
- CC50 (KASUMI-3; Kasumi-3, 72 h): < 5 nM
- GI50 (KG-1; Homo sapiens): 210 nM
- CC50 (KG-1; Homo sapiens): > 10000 nM
- GI50 (OCI-AML-3; Homo sapiens): 1180 nM
- CC50 (OCI-AML-3; Homo sapiens, read-out: LC50): > 10000 nM
- GI50 (MV-4-11 [1]; Homo sapiens, MV4-11, 72 h): < 5 nM
- CC50 (MV-4-11 [1]; Homo sapiens, MV4-11, 72 h, read-out: LC50): < 5 nM
- GI50 (EOL-1; Homo sapiens, EOL1, 72 h): < 5 nM

SMILES: N[C@@H]1CCCN(c2c(/C=C3\SC(=O)NC3=O)cccc2-c2ccccc2)C1 [AZD1208]
- GI50 (SKM-1; dilutions starting at 10 µM): > 10000 nM
- CC50 (SKM-1; 50% death relative to T0): > 10000 nM
- GI50 (MOLM-16; MOLM-16, 72 h, dilutions starting at 10 µM): 16 nM
- TGI (KG-1 (FLT3-WT) tumor): 59.9%
- GI50 (OCI-AML-2; OCI-AML-2, 72 h, dilutions starting at 10 µM): 333 nM
- GI50 (KASUMI-6; KASUMI-6, 72 h, dilutions starting at 10 µM): 19 nM
- S6 (S235/236) phosphorylation (MOLM-16 (FLT3-WT) cells): profound inhibition
- MCL1 abundance [2]: did not alter
- STAT5 signaling [2]: did not change
- GI50 (SKNO-1; dilutions starting at 10 µM): 5 nM
- GI50 (RS4;11; RS4;11, 72 h, dilutions starting at 10 µM): 4220 nM
- CC50 (RS4;11; RS4;11, 72 h, 50% death relative to T0): > 10000 nM
- GI50 (GDM-1; dilutions starting at 10 µM): 506 nM
- GI50 (PL-21; dilutions starting at 10 µM): > 10000 nM
- GI50 (SIG-M5; dilutions starting at 10 µM): > 10000 nM
- CC50 (SIG-M5; 50% death relative to T0): > 10000 nM
- combination of AZD1208 and AC220 (MV-4-11 [3]): synergistic effect
- GI50 (MOLM-13; dilutions starting at 10 µM): 306 nM
- CC50 (MOLM-13; 50% death relative to T0): > 10000 nM
- TGI (MOLM-13 xenografts): 19.5%
- GI50 (MOLM-6; MOLM-6, 72 h, dilutions starting at 10 µM): 973 nM
- CC50 (MOLM-6; MOLM-6, 72 h, 50% death relative to T0): > 10000 nM
- GI50 (KASUMI-3; KASUMI-3, 72 h, dilutions starting at 10 µM): 57 nM
- CC50 (KASUMI-3; KASUMI-3, 72 h, 50% death relative to T0): 4630 nM
- viability of MOLM-14 cells with FLT3-TKD mutants versus FLT3-ITD or parental cells [4]: only marginally affected the viability
- GI50 (KG-1; dilutions starting at 10 µM): 20 nM
- CC50 (KG-1; 50% death relative to T0): > 10000 nM
- GI50 (OCI-AML-3; dilutions starting at 10 µM): > 10000 nM
- GI50 (MV-4-11 [1]; MV-4-11, 72 h, dilutions starting at 10 µM): 1460 nM
- GI50 (EOL-1; EOL-1, 72 h, dilutions starting at 10 µM): 89 nM

From PMC5908295 (Oncotarget, 2018)
